# Test results as given in paper PMC12263571, “Antiviral effects of mogroside V against porcine reproductive and respiratory syndrome virus in vitro” (Frontiers in Microbiology, 2025).
# pIC50: −log10 of the molar value. Like-named read-outs stand apart in the source and are kept apart here.
# Key:
# Marc-145 cells = test: CCK-8 cytotoxicity assay in Marc-145 cells; assay type: cell-based
# Procedure: (§1) The cytotoxicity of MV was assessed using the Cell Counting Kit-8 (CCK-8) assay to determine cell viability. Porcine alveolar macrophages (PAMs) and Marc-145 cells were seeded in 96-well plates and treated with varying concentrations of MV (0, 100, 200, 400 or 800 μM) for 24, 48, 72, and 96 h. Following the manufacturer's protocol, CCK-8 reagent was added to each well, and cells were incubated for 2 h at 37°C under 5% CO2. Absorbance was measured at 450 nm using a microplate reader. Cell viability (%) was calculated using the formula:Cell viability (%) = [OD (sample) – OD (blank)/OD (control) – OD (blank)] × 100%, where OD (blank) represents the background absorbance of cell-free medium, and OD (control) denotes untreated cells.
# (§2) The half-maximal inhibitory concentration (IC50) value for MV-mediated cytotoxicity was calculated through nonlinear regression fitting of dose-response curves.
# [1] = tested on: Porcine alveolar macrophages (PAMs); test: CCK-8 cytotoxicity assay in PAM cells; assay type: cell-based
# Procedure: as §1, §2
# HP-PRRSV-GFP = test: Antiviral assay (TCID50, RT-qPCR, IFA) against HP-PRRSV-GFP strain in Marc-145 and PAM cells; assay type: cell-based, porcine reproductive and respiratory syndrome virus
# Procedure: (§3) To investigate the stage-specific antiviral effects of mogroside V (MV) and evaluate its ability to inhibit PRRSV replication in Marc-145 and PAM cells, three distinct treatment groups were established for in vitro evaluation: pre-treatment group, post-treatment group, and co-treatment group. Viral replication was assessed through multiple approaches: quantification of viral mRNA copies by RT-qPCR, determination of viral titers using the TCID50 method, and analysis of PRRSV N protein expression via immunofluorescence assay (IFA). The experimental design was as follows:
# (§4) Pre-treatment group: to investigate the preventive effect of MV prior to PRRSV infection, Marc-145 or PAM cells were pretreated with MV before viral challenge. Cells in good growth condition were seeded in 6-well plates and cultured until monolayer formation. After removing the old medium, cells were washed twice with PBS, followed by incubation with varying concentrations of MV for 24 h. The drug was then removed, and cells were washed twice with PBS before infection with PRRSV (100 TCID50) for 48 h. Subsequently, viral mRNA copies, viral titers, and PRRSV N protein fluorescence expression were measured to calculate viral inhibition rates.
# (§5) Post-treatment group: In order to investigate the effect of MV on PRRSV infection, MV was added after Marc-145 or PAM cells were infected with PRRSV. The cells with good growth status were inoculated in the 6-well cell culture plate. After the cells grew to monolayer, the old medium was discarded and the cells were cleaned twice with PBS. PRRSV (100 TCID50) was inoculated and incubated for 1 h, during which the virus could be shaken repeatedly to fully interact with cells. The virus venom was removed, washed twice with PBS, and incubated with different concentrations of MV for 48 h. After that, the viral mRNA copies and viral titer were detected, the viral inhibition rate was calculated, and the fluorescence expression of PRRSV N protein was observed.
# (§6) Co-treatment group: In order to study the direct effect of MV on PRRSV, PRRSV and MV were simultaneously inoculated in Marc-145 or PAM cells for treatment. The cells with good growth status were inoculated in the 6-well cell culture plate. After the cells grew to monolayer, the old medium was discarded and the cells were cleaned twice with PBS. MV at different concentrations was mixed with PRRSV (100 TCID50) and inoculated into Marc-145 and PAM cells for 48 h. After that, the viral mRNA copies and viral titer were detected, viral inhibition rate was calculated, and the fluorescence expression of PRRSV N protein was observed.
# (§7) Real-time quantitative PCR (RT-qPCR) was performed to determine PRRSV gene expression levels. Viral RNA was extracted from cell culture supernatants using a commercial viral DNA/RNA extraction kit according to the manufacturer's protocol, with subsequent storage at −80°C until further analysis. RT-qPCR amplification were conducted using TransScript Green One-Step qRT-PCR SuperMix kit.
# (§8) The supernatant from 6-well culture plates was collected into 1.5 mL microcentrifuge tubes and stored at −80°C for subsequent analysis. Cells were washed twice with PBS and fixed with ice-cold methanol for 15 min at room temperature. Non-specific binding sites were blocked with 1% BSA containing 0.05% Tween 20 for 30 min at ambient temperature. Cells were then incubated with anti-PRRSV N protein monoclonal antibody either for 2 h at 37°C or overnight at 4°C. Following primary antibody incubation, cells were treated with fluorophore-conjugated secondary antibody (goat anti-mouse IgG, Alexa Fluor 488) for 1 h at 37°C. Nuclei were counterstained with DAPI for 10 min at room temperature protected from light. Fluorescence microscopy was performed to examine the subcellular distribution and expression levels of PRRSV N protein. Stained cell monolayers were visualized under 4 × , 10 × , and 20 × objective lenses using an epifluorescence microscope. […]
# NADC30 strain = test: Antiviral assay (TCID50, RT-qPCR, IFA) against NADC30 strain in Marc-145 and PAM cells; assay type: cell-based, porcine reproductive and respiratory syndrome virus; conditions: for viral titers: co-treatment; for PRRSV N protein expression (IFA): PAMs, pre-treatment
# Procedure: as §3, §4, §5, §6, §7, §8
# PRRSV = test: Antiviral assay against PRRSV, both strains (HP-PRRSV-GFP and NADC30) taken together; assay type: cell-based, porcine reproductive and respiratory syndrome virus
# Procedure: as §3, §4, §5, §6, §7, §8
# [2] = tested on: immunomodulatory cytokines gene expression in PAMs; test: RT-qPCR of immunoregulatory factor gene expression in PAMs; assay type: cell-based, porcine
# [3] = Marc-145 and PAM cells, 400 μM MV
# [4] = Marc-145 and PAM cells, MV ≤ 200 μM
# [5] = pre-treatment, 400 μM MV, both cell types, vs untreated controls, P < 0.01
compound,measurement,setting,value
"C[C@H](CC[C@@H](O[C@@H]1O[C@H](CO[C@@H]2O[C@H](CO)[C@@H](O)[C@H](O)[C@H]2O)[C@@H](O)[C@H](O)[C@H]1O[C@@H]1O[C@H](CO)[C@@H](O)[C@H](O)[C@H]1O)C(C)(C)O)[C@H]1CC[C@@]2(C)[C@@H]3CC=C4[C@@H](CC[C@H](O[C@@H]5O[C@H](CO[C@@H]6O[C@H](CO)[C@@H](O)[C@H](O)[C@H]6O)[C@@H](O)[C@H](O)[C@H]5O)C4(C)C)[C@]3(C)[C@H](O)C[C@]12C [MV, Mogroside V]",cell viability,"Marc-145 cells; Marc-145 cells, 400 μM MV",exceeded 75%
same,pIC50,"Marc-145 cells; Marc-145 cells, 24 h",3.16
same,pIC50,"Marc-145 cells; Marc-145 cells, 48 h",3.12
same,pIC50,"Marc-145 cells; Marc-145 cells, 72 h",3.12
same,pIC50,"Marc-145 cells; Marc-145 cells, 96 h",3.12
same,maximum safe drug concentration,Marc-145 cells; PAM and Marc-145 cells,400 µM
same,cell viability,"[1]; PAM cells, 400 μM MV",exceeded 75%
same,pIC50,"[1]; PAM cells, 24 h, read-out: IC50 (cytotoxicity)",3.24
same,pIC50,"[1]; PAM cells, 48 h, read-out: IC50 (cytotoxicity)",3.22
same,pIC50,"[1]; PAM cells, 72 h, read-out: IC50 (cytotoxicity)",3.15
same,pIC50,"[1]; PAM cells, 96 h, read-out: IC50 (cytotoxicity)",3.23
same,pIC50,"[1]; all IC50 values, Marc-145 and PAM cells, 24-96 h, read-out: IC50 values, all",≤ 3.24
same,"increase in mRNA inhibition, 400 μM vs 200 μM",HP-PRRSV-GFP; Marc-145 and PAM cells,53 percentage-point
same,"increase in viral titer inhibition, 400 μM vs 200 μM",HP-PRRSV-GFP; Marc-145 and PAM cells,52 percentage-point
same,average mRNA inhibition rate,HP-PRRSV-GFP; [3],exceeding 95%
same,average viral titer inhibition rate,HP-PRRSV-GFP; [3],exceeding 95%
same,average mRNA inhibition rate,HP-PRRSV-GFP; [4],below 42%
same,average viral titer inhibition rate,HP-PRRSV-GFP; [4],below 43%
same,viral titers,"HP-PRRSV-GFP; Marc-145 cells, co-treatment, 400 μM MV",below the detection threshold
same,viral titers,"HP-PRRSV-GFP; PAM cells, co-treatment, 400 μM MV",below the detection threshold
same,viral mRNA copies,"HP-PRRSV-GFP; PAMs, pre-treatment, 200 μM MV, P < 0.05",significantly suppressed
same,viral titers,"HP-PRRSV-GFP; PAMs, pre-treatment, 200 μM MV, P > 0.05",no significant reduction
same,"enhancement in mRNA inhibition, 400 μM vs 200 μM",NADC30 strain; Marc-145 and PAM cells,49 percentage-point
same,"improvement in viral titer inhibition, 400 μM vs 200 μM",NADC30 strain; Marc-145 and PAM cells,43 percentage-point
same,average mRNA inhibition rate,NADC30 strain; [3],> 94%
same,average viral titer inhibition rate,NADC30 strain; [3],> 98%
same,average mRNA inhibition rate,NADC30 strain; [4],below 45%
same,average viral titer inhibition rate,NADC30 strain; [4],below 55%
same,viral titers,"NADC30 strain; Marc-145 cells, 400 μM MV",below the detection threshold
same,viral titers,"NADC30 strain; PAM cells, 400 μM MV (CPE in only two replicate wells)",approached the lower detection limit
same,PRRSV N protein expression (IFA),"NADC30 strain; 400 μM MV, P < 0.01",significantly reduced
same,PRRSV N protein expression (IFA),NADC30 strain; 100 and 200 μM MV,no statistically significant effects
same,inhibition rate for viral titers,"PRRSV; 200 μM MV, Marc-145 and PAM cells, mean values across all treatment groups",43%
same,maximal inhibition of viral titers,PRRSV; 400 μM MV,up to 100%
same,"greater suppression of viral mRNA, high- vs low-concentration group",PRRSV; 400 μM vs 200 μM MV,51%
same,viral fluorescence intensity (IFA),"PRRSV; Marc-145 cells, pre-treatment, 400 μM MV, P < 0.01",markedly diminished
same,PRRSV N protein expression (IFA),"PRRSV; Marc-145 or PAM cells, 400 μM MV, post-infection and co-treatment regimens",no detectable PRRSV N protein expression
same,viral replication in cells,"PRRSV; co-treatment, 400 μM MV, P < 0.01",markedly suppressed
same,viral titers,"PRRSV; post-treatment (1 h post-infection), 400 μM MV, Marc-145 and PAM cells",undetectable levels
same,viral mRNA copies,"PRRSV; post-treatment (1 h post-infection), 400 μM MV, Marc-145 and PAM cells, P < 0.01",significantly reduced
same,PRRSV mRNA levels,PRRSV; [5],significantly reduced
same,viral titers,PRRSV; [5],significantly reduced
same,"pro-inflammatory cytokine storm, such as excessive TNF-α secretion",[2],no evidence of a pro-inflammatory cytokine storm
same,IL-1 gene expression,[2]; RT-qPCR,significantly upregulates
same,IL-1β gene expression,[2]; RT-qPCR,significantly upregulates
same,IL-2 gene expression,[2]; RT-qPCR,significantly upregulates
same,IL-8 gene expression,[2]; RT-qPCR,significantly upregulates
same,IL-18 gene expression,[2]; RT-qPCR,significantly upregulates
